Measurements as given in ChEMBL document CHEMBL1287714, “5-amino-pyrazoles as potent and selective p38α inhibitors” (Bioorg Med Chem Lett, 2010).
In brackets after ≈: the same amount, converted by molar mass. Values belong to the compound of their own block, whether it stands above or below them.

Columns and labels:
PBMC = assay: Antiinflammatory activity in human PBMC assessed as inhibition of LPS-induced TNFalpha production; assay type: functional, cell-based
[1] = biological target: Mitogen-activated protein kinase 14 (Homo sapiens, UniProt Q16539); assay: Inhibition of human recombinant p38alpha
Mitogen-activated protein kinase 14, sequence (Q16539 whole entry): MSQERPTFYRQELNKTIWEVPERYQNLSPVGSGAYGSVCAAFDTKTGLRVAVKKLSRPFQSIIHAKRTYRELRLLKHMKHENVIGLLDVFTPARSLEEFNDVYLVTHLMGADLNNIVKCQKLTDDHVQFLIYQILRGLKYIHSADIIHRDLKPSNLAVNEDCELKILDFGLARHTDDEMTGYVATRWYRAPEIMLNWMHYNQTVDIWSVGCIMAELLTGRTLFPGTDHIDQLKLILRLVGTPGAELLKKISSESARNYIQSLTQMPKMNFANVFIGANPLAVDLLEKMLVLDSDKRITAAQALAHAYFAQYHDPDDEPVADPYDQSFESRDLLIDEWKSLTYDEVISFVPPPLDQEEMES

[2] = biological target: Vascular endothelial growth factor receptor 2 (Homo sapiens, UniProt P35968); assay: Inhibition of KDR
[3] = biological target: Tyrosine-protein kinase BTK (Homo sapiens, UniProt Q06187); assay: Inhibition of Btk
[4] = Inhibition of CaMK2
[5] = biological target: MAP kinase-activated protein kinase 2 (Homo sapiens, UniProt P49137); assay: Inhibition of MK2
MAP kinase-activated protein kinase 2, sequence (P49137 whole entry): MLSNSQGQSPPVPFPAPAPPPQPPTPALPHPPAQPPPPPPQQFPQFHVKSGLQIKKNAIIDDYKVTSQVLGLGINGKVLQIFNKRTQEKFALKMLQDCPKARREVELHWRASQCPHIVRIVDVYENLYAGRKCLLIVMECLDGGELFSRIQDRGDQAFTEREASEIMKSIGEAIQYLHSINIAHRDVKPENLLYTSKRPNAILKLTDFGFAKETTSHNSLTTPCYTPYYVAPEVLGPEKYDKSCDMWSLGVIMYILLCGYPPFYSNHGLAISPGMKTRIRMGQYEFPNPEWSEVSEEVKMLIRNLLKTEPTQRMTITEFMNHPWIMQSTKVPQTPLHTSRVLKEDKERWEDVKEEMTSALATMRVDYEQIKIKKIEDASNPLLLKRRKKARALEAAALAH

[6] = biological target: Tyrosine-protein kinase ITK/TSK (Homo sapiens, UniProt Q08881); assay: Inhibition of Itk
[7] = biological target: Signal transducer and activator of transcription 3 (Homo sapiens, UniProt P40763); assay: Inhibition of STAT3
[8] = biological target: Fibroblast growth factor receptor 1 (Homo sapiens, UniProt P11362); assay: Inhibition of FGFR1
Fibroblast growth factor receptor 1, sequence (P11362 whole entry): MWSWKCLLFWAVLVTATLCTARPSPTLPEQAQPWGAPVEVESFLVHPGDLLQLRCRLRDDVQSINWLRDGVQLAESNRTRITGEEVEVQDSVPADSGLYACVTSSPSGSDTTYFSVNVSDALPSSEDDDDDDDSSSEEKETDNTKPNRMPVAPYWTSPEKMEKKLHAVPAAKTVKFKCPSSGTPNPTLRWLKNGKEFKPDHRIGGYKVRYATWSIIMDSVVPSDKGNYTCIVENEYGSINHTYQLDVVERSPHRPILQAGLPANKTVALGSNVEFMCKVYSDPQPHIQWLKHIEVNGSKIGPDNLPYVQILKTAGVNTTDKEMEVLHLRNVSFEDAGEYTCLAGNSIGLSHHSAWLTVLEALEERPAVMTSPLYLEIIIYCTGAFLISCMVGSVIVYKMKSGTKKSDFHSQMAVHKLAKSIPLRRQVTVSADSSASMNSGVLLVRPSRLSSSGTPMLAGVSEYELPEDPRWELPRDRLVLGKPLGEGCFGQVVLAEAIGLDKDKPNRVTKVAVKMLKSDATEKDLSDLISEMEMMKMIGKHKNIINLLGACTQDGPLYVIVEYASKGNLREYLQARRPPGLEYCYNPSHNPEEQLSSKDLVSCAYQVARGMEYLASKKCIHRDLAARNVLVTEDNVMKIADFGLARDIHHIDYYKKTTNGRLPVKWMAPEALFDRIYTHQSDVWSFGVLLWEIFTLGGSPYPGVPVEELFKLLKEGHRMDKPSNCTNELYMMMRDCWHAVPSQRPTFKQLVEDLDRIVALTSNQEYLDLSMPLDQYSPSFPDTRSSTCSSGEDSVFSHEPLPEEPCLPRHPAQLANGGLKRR

[9] = Inhibition of GSK3
[10] = biological target: Insulin-like growth factor 1 receptor (Homo sapiens, UniProt P08069); assay: Inhibition of IGF-1R
[11] = biological target: Tyrosine-protein kinase JAK3 (Homo sapiens, UniProt P52333); assay: Inhibition of Jak3
Tyrosine-protein kinase JAK3, sequence (P52333 whole entry): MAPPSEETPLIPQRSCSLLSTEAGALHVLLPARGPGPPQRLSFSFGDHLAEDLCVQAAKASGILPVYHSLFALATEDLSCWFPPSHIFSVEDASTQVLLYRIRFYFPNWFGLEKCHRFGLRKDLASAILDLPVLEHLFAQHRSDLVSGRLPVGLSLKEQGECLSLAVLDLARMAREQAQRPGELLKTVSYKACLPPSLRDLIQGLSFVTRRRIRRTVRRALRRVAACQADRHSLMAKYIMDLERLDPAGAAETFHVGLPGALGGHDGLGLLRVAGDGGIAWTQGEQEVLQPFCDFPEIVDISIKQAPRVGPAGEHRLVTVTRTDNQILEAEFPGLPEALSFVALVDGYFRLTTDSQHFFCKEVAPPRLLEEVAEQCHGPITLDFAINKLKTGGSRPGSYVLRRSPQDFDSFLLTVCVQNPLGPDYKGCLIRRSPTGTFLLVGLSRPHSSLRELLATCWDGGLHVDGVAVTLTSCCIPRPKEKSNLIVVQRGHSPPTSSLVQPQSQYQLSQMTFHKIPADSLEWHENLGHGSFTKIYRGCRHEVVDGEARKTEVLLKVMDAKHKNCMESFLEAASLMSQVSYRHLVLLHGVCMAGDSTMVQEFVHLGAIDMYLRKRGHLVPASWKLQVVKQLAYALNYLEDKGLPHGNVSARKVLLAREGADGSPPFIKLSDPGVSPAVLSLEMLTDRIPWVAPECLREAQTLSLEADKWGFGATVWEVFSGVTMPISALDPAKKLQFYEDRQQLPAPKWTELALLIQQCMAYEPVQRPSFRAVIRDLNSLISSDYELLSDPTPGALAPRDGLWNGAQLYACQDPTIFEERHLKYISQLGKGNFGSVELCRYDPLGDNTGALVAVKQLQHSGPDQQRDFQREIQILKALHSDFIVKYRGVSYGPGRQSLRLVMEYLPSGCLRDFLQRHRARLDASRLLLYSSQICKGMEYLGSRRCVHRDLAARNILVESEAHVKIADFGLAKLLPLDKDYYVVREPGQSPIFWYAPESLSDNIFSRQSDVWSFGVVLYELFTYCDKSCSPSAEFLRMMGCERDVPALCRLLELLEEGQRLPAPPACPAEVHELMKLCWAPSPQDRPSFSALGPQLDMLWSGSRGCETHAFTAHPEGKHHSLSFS

[12] = Inhibition of Lckzeta
[13] = Inhibition of VEGF receptor
[14] = biological target: Non-receptor tyrosine-protein kinase TYK2 (Homo sapiens, UniProt P29597); assay: Inhibition of Tyk2
[15] = biological target: Serine/threonine-protein kinase PLK1 (Homo sapiens, UniProt P53350); assay: Inhibition of PLK1
[16] = biological target: Diacylglycerol O-acyltransferase 1 (Homo sapiens, UniProt O75907); assay: Inhibition of DGAT
[17] = biological target: Protein kinase C alpha type (Homo sapiens, UniProt P17252); assay: Inhibition of PKCalpha
[18] = biological target: Protein kinase C delta type (Homo sapiens, UniProt Q05655); assay: Inhibition of PKCdelta
[19] = Inhibition of PKCtau
[20] = biological target: Protein kinase C zeta type (Homo sapiens, UniProt Q05513); assay: Inhibition of PKCzeta
[21] = Inhibition of PDGF receptor
[22] = Aqueous solubility of the compound at pH 6.5; assay type: physicochemical
[23] = Apparent permeability across human Caco-2 cells; assay type: ADME, cell-based; details: read-out: permeability
Cytochrome P450 1A2 = Cytochrome P450 1A2 (Homo sapiens, UniProt P05177); assay: Inhibition of CYP1A2; assay type: ADME
Cytochrome P450 1A2, sequence (P05177 whole entry): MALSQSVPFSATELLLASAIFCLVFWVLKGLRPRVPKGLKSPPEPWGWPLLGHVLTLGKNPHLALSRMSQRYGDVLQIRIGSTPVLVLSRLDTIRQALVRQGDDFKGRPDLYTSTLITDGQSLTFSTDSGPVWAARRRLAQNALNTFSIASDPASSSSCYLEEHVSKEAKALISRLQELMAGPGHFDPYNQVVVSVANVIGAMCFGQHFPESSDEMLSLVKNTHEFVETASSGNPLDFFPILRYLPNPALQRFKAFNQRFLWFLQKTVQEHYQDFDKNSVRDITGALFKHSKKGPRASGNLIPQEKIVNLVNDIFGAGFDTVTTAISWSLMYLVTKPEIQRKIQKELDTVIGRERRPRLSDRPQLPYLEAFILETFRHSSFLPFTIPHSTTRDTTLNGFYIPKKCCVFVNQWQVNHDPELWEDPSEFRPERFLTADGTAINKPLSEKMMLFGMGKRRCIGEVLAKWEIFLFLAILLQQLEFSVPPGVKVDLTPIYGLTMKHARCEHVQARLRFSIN

[24] = biological target: Voltage-gated inwardly rectifying potassium channel KCNH2 (Homo sapiens, UniProt Q12809); assay: Inhibition of human ERG by flux assay
Voltage-gated inwardly rectifying potassium channel KCNH2, sequence (Q12809 whole entry): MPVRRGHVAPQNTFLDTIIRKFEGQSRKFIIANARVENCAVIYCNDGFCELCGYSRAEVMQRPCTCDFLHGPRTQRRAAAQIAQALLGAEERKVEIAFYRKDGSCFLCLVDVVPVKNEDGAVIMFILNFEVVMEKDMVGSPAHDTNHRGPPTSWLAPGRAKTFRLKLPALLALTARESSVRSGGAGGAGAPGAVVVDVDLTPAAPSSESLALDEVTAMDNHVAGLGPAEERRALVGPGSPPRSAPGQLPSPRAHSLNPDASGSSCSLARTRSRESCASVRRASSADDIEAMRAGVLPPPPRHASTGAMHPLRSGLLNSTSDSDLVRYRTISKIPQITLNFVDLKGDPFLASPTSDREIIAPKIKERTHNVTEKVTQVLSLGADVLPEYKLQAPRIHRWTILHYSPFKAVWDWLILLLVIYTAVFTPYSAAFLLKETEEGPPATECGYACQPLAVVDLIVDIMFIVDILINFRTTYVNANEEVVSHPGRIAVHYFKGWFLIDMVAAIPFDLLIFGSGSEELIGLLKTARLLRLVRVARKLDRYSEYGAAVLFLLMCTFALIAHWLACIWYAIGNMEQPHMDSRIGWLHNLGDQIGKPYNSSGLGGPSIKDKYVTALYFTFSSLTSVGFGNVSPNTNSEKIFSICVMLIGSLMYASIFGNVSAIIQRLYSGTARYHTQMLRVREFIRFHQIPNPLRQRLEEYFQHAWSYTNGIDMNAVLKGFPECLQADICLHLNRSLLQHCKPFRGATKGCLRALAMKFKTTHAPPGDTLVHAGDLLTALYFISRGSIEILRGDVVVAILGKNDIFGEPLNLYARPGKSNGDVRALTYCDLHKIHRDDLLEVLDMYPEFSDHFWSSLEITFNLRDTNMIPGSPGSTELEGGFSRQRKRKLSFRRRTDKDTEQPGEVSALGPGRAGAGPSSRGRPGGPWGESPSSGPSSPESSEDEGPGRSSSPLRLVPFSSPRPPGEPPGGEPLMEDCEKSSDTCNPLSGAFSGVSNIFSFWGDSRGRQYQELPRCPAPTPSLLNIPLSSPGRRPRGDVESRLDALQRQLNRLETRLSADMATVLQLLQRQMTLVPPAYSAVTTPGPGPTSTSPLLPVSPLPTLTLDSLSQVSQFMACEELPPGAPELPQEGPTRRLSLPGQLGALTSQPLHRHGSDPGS

Mus musculus = assay: Antiinflammatory activity in mouse plasma assessed as inhibition of LPS-induced TNFalpha production at 5 mg/kg, po administered 24 hrs before LPS challenge measured after 90 mins; assay type: functional
Cytochrome P450 2D6 = Cytochrome P450 2D6 (Homo sapiens, UniProt P10635); assay: Inhibition of CYP2D6; assay type: ADME
Cytochrome P450 3A4 = Cytochrome P450 3A4 (Homo sapiens, UniProt P08684); assay: Inhibition of CYP3A4; assay type: ADME
Cytochrome P450 2C19 = Cytochrome P450 2C19 (Homo sapiens, UniProt P33261); assay: Inhibition of CYP2C19; assay type: ADME
Cytochrome P450 2C9 = Cytochrome P450 2C9 (Homo sapiens, UniProt P11712); assay: Inhibition of CYP2C9; assay type: ADME
[25] = Metabolic rate in rat liver microsomes at 3 uM after 10 mins
[26] = Metabolic rate in human liver microsomes at 3 uM after 10 mins
[27] = Metabolic rate in mouse liver microsomes at 3 uM after 10 mins

Structure (SMILES): Cc1ccc(C(=O)Nc2ccon2)cc1NC(=O)c1cnn(-c2ccccc2)c1N
- IC50 (PBMC): 1 nM

Structure (SMILES): CCn1nccc1NC(=O)c1ccc(C)c(NC(=O)c2cnn(-c3ccc(F)cc3)c2N)c1
- IC50 [1]: 2 nM
- IC50 (PBMC): 2 nM

Structure (SMILES): CCNC(=O)c1ccc(C)c(NC(=O)c2cnn(-c3ccccc3)c2NCC)c1
- IC50 [1]: 6 nM
- IC50 (PBMC): 15 nM

Structure (SMILES): CNC(=O)c1ccc(C)c(NC(=O)c2cnn(-c3ccccc3)c2N)c1
- IC50 [1]: 14 nM
- IC50 (PBMC): 48 nM

Structure (SMILES): Cc1ccc(C(=O)NC2CC2)cc1NC(=O)c1cnn(-c2ccccc2)c1N
- IC50 [1]: 7 nM
- IC50 (PBMC): 26 nM

Structure (SMILES): Cc1ccc(C(=O)Nc2ccnn2C)cc1NC(=O)c1cnn(-c2ccccc2)c1N
- IC50 [1]: 7 nM
- IC50 (PBMC): 5 nM

Structure (SMILES): CCn1nccc1NC(=O)c1ccc(C)c(NC(=O)c2cnn(-c3ccccc3)c2N)c1
- IC50 [1]: 5 nM
- IC50 (PBMC): 8 nM

Structure (SMILES): CCn1nccc1NC(=O)c1ccc(C)c(NC(=O)c2cnn(-c3ccccc3F)c2N)c1
- IC50 [1]: 3 nM
- IC50 (PBMC): 5 nM

Structure (SMILES): Cc1ccc(C(=O)Nc2ccnn2C)cc1NC(=O)c1cnn(-c2ccccc2F)c1N
- IC50 [1]: 4 nM
- IC50 (PBMC): 2 nM

Further lines, with some results ahead:

- IC50 [1]: 7 nM
Structure (SMILES): CCCCn1ncc(C(=O)Nc2cc(C(=O)Nc3ccnn3C)ccc2C)c1N
- IC50 (PBMC): 17 nM

- IC50 [1]: 2 nM
Structure (SMILES): Cc1ccc(C(=O)Nc2ccon2)cc1NC(=O)c1cnn(-c2ccc(F)cc2)c1N
- IC50 (PBMC): 2 nM

- IC50 [1]: 2 nM
Structure (SMILES): CCCCn1ncc(C(=O)Nc2cc(C(=O)Nc3ccon3)ccc2C)c1N
- IC50 (PBMC): 2 nM

- IC50 [1]: 5 nM
Structure (SMILES): CNc1c(C(=O)Nc2cc(C(=O)Nc3ccon3)ccc2C)cnn1-c1ccccc1
- IC50 (PBMC): 7 nM

- IC50 [1]: 4 nM
Structure (SMILES): CCNc1c(C(=O)Nc2cc(C(=O)Nc3ccon3)ccc2C)cnn1-c1ccccn1
- IC50 (PBMC): 30 nM

- IC50 [1]: 5 nM
Structure (SMILES): CCNc1c(C(=O)Nc2cc(C(=O)Nc3ccon3)ccc2C)cnn1-c1ccccc1C
- IC50 (PBMC): 1 nM

- IC50 [1]: 8 nM
Structure (SMILES): CCNC(=O)c1ccc(C)c(NC(=O)c2cnn(-c3ccccc3)c2N)c1
- IC50 (PBMC): 16 nM

- IC50 [1]: 2 nM
Structure (SMILES): Cc1ccc(C(=O)Nc2ccon2)cc1NC(=O)c1cnn(-c2ccccn2)c1N
- IC50 (PBMC): 8 nM

- IC50 [1]: 2 nM
- IC50 [2]: > 50000 nM
- IC50 [3]: > 15000 nM
- IC50 [4]: > 50000 nM
- IC50 [5]: > 30000 nM
- IC50 [6]: > 50000 nM
- IC50 [7]: > 10000 nM
- IC50 [8]: > 50000 nM
- IC50 [9]: > 5000 nM
- IC50 [10]: > 50000 nM
- IC50 [11]: > 10000 nM
- IC50 [12]: > 50000 nM
- IC50 [13]: > 50000 nM
- IC50 [14]: > 5000 nM
- IC50 [15]: > 15000 nM
- IC50 [16]: > 20000 nM
- IC50 [17]: > 40000 nM
- IC50 [18]: > 40000 nM
- IC50 [19]: > 13000 nM
- IC50 [20]: > 20000 nM
- IC50 [21]: 9200 nM
- solubility [22]: 33 µg/mL (≈ 78.5 µM)
- Papp [23]: 23.1 ×10⁻⁶ cm/s
- IC50 (Cytochrome P450 1A2): > 40000 nM
- IC50 (Cytochrome P450 2D6): > 40000 nM
- IC50 (Cytochrome P450 3A4): > 40000 nM
- IC50 (Cytochrome P450 2C19): > 13000 nM
- IC50 (Cytochrome P450 2C9): 23000 nM
- metabolic rate at 10 min, 3 µM [25]: 0 nmol/min/mg
- metabolic rate at 10 min, 3 µM [26]: 0.001 nmol/min/mg
- metabolic rate at 10 min, 3 µM [27]: 0 nmol/min/mg
Structure (SMILES): Cc1ccc(C(=O)Nc2ccon2)cc1NC(=O)c1cnn(-c2ccccc2F)c1N
- IC50 (PBMC): 1 nM
- IC50 [24]: > 160000 nM
- inhibition in vivo at 5 mg/kg (Mus musculus): > 75%
